Measurements from EP0377846A1, “Pharmaceutical mixture preparation containing nucleoside derivatives and pentosan polysulfate, and its manufacture and use” (HOECHST AKTIENGESELLSCHAFT, priority 1988, dated 1990).
Converted amounts (≈) assume the structure as drawn.

System: HIV 1
Assay: Inhibition of HIV-induced syncytium formation in cultures of human lymphocytes (test of preparations against HIV in cell culture, microscopic reading on day 4 after infection)
Type: cell-based
Conditions: Human immunodeficiency virus 1, 96 h, footnote of Tabelle 1, AZT alone, read-out: MHK-Wert
Protocol: RPMI pH 6,8 Komplettes Medium enthält zusätzlich 20 % foetales Kälberserum und 20 IU/ml rekombinantes Interleukin 2.
Aus frischem Spenderblut mittels Ficoll^R-Gradientenzentrifugation isolierte Lymphozyten werden unter Zusatz von 2 µg/ml Phytohämagglutinin (Wellcome) in komplettem Medium 36 h bei 37°C unter 5 % CO₂ kultiviert. Die Zellen werden nach Zusatz von 10 % DMSO bei einer Zelldichte von 5 x 10⁶ eingefroren und in flüssigem Stickstoff gelagert. Für den Versuch werden die Zellen aufgetaut, in RPMI-Medium gewaschen und in komplettem Medium 3 - 4 Tage kultiviert.
Die Prüfpräparate werden in komplettem Medium gelöst, üblicherweise in einer Konzentration von 1,2 mg/ml. In 24er Multiwell-Schalen werden jeweils 0,5 ml komplettes Medium gegeben. Nach Zusatz von 0,1 ml des gelösten Präparates wird durch Übertragung von jeweils 0,1 ml das Präparat in einer geometrischen Verdünnungsreihe, […], verdünnt. Zu allen Ansätzen werden 0,4 ml einer Suspension mit 5 x 10⁵ Lymphozyten pro ml gegeben.
Die Ansätze werden mit 0,1 ml eines Überstandes von HIV 1 infizierten Lymphozyten versetzt, der so eingestellt ist, daß im Ansatz der cytopathogene Effekt nach 3 - 4 Tagen erkennbar ist. Die Multiplizität der infektiösen Einheit beträgt hierbei 0,01 - 0,02.
Der Versuchsansatz enhält damit folgende Komponenten in komplettem Medium [formula] […]

Work on Cc1cn([C@H]2C[C@H](N=[N+]=[N-])[C@@H](CO)O2)c(=O)[nH]c1=O [3′-Azido-3′-deoxythymidin] yielded an MIC of 0.1 µg/mL (≈ 0.374 µM).
